Data published in ChEMBL document CHEMBL1201862, “PubChem BioAssay data set” (2004).
Counter-ions that a name gives are not always drawn. The source made the active and inactive calls.

Tests used:
[1] = inhibitors of non-replicating M. tuberculosis, dose response, luciferase, dry powder (AID 651619); type: functional; details: Mycobacterium tuberculosis
[2] = CTGF mRNA reduction under YAP1 overexpression, dose response, mechanism study for YAP1 pathway inhibitor project, DLD1 cells, RT-qPCR, cherry-pick (AID 1053127); type: functional, cell-based; details: DLD-1
[3] = YAP1 pathway inhibition via CTGF transcript levels, dose response, cell-based, DLD1 colon cancer, RT-qPCR, cherry-pick (AID 1053122); type: functional; details: Cancer cell lines
[4] = P. falciparum Dd2 blood-stage growth inhibition, dose response, SYBR Green fluorescence, erythrocytes, dry powder, set 2 (AID 1159574); type: functional, cell-based
[5] = A549 cell cytotoxicity, dose response, cytotoxicity control, plate reader, dry powder, set 6 (AID 743312); type: functional, cell-based
[6] = HepG2 cell cytotoxicity, dose response, cytotoxicity control, plate reader, dry powder, set 6 (AID 743311); type: functional, cell-based
[7] = cells; details: HEK293
[8] = HEK293T cell cytotoxicity, dose response, cytotoxicity control, plate reader, dry powder, set 10 (AID 743315); type: functional, cell-based; details: HEK293
[9] = P. falciparum Dd2 growth inhibitors, dose response, SYBR Green, dry powder samples, set 9 (AID 1159568); type: functional, cell-based
[10] = P. falciparum Dd2 growth inhibitors, dose response, SYBR Green, dry powder samples (AID 1159566); type: functional, cell-based;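 also: potency for growth inhibition with lower SYBR green DNA signal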
[11] = P. falciparum ATP4 D1247Y mutant growth inhibitors, dose response, NITD609-resistant line, SYBR Green, dry powder (AID 1159571); type: functional, cell-based;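 also: parasites synchronized at ring stage by sorbitol before testing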
[12] = HepG2 cell cytotoxicity, dose response, cytotoxicity control, plate reader, dry powder samples (AID 1159569); type: functional, cell-based;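 also: inhibitor potency with signal falling toward the positive control level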
[13] = P. falciparum 3D7-ScDHODH growth inhibitors, dose response, SYBR Green, dry powder samples (AID 1159570); type: functional, cell-based;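 also: parasite growth measured after 72 hours of compound exposure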
[14] = CellTiter-Glo luminescent dose response of DLD-1 viability loss (AID 1117352); type: functional
[15] = RKO cell viability reduction, dose response, CellTiter-Glo luminescence (AID 1117322); type: functional
[16] = Concentration-dependent survival of SW480 colon cancer line, luminescence detection with CellTiter-Glo, half-maximal inhibitory concentration (AID 1117338); type: functional
[17] = cytotoxicity toward Colo320 cells – cell-based, CellTiter-Glo luminescence, IC50, dose response (AID 1117334); type: functional; details: COLO 320
[18] = cytotoxicity toward HT-29 cells – cell-based, CellTiter-Glo luminescence, IC50, dose response (AID 1117330); type: functional
[19] = cytotoxicity toward HCT116 cells – cell-based, CellTiter-Glo luminescence, IC50, dose response (AID 1117332); type: functional; details: HCT-116
[20] = SNU-C1 cell viability reduction, dose response, CellTiter-Glo luminescence (AID 1117323); type: functional, cell-based
[21] = HeLa 4N DNA content increase, dose response, cell-based, IC50 (AID 1117351); type: functional
[22] = HeLa 2N DNA content increase, dose response, cell-based, IC50 (AID 1117349); type: functional

For `[N-]=[N+]=NCCOCCNC(=O)CCCn1cc(C[S+]([O-])c2nnc(-c3ccc(F)cc3)o2)nn1` (configuration not stated), the IC90 [1] was 125 µM (active).

In the case of `COc1ccccc1C#Cc1ccc([C@@H]2[C@@H](CO)N3CCCCN(C(=O)C4CCC4)C[C@@H]23)cc1`, the AC50 [2] is reported as 17.7 µM (active) and the AC50 [3] is reported as 15.9 µM (active).

With `COc1ccc2c3c([nH]c2c1)[C@@H](CO)N(C(C)=O)CC31CCN(C(=O)Nc2ccccc2F)CC1` the AC50 [4] was 2.48 µM (active).

In the case of `Cc1cccc(OCCn2c(S)nc3cc(F)ccc32)c1`, the AC50 [5] is reported as 23.4 µM (active), the AC50 [6] is reported as 44.9 µM (active) and the AC50 [7] is reported as > 52 µM (inactive). The AC50 [8] was > 52 µM (inactive).

With `N#C[C@H]1[C@H](c2ccc(-c3cccc(F)c3)cc2)[C@@H](CO)N1C(=O)NC1CCCC1` the AC50 [9] was 20.2 µM (active).

With `C[C@H]1CN([C@@H](C)CO)C(=O)c2c(c3ccccc3n2C)-c2ccccc2CO[C@H]1CN(C)S(=O)(=O)c1ccc(F)cc1` the AC50 [10] was 0.47 µM (active), the AC50 [11] was 1.05 µM (active) and the AC50 [12] was 50.9 µM (active). The AC50 [13] was 0.819 µM (active).

In the case of `Cc1cccc(Cc2c[nH]cn2)c1C` [DETOMIDINE HYDROCHLORIDE], the IC50 [14] is reported as > 20 µM (inactive), the IC50 [15] is reported as > 20 µM (inactive) and the IC50 [16] is reported as > 20 µM (inactive). For the same compound, the IC50 [17] was > 20 µM (inactive), the IC50 [18] was > 20 µM (inactive) and the IC50 [19] was > 20 µM (inactive). The IC50 [20] was > 20 µM (inactive).

In the case of `C[C@@H]1C[C@H]2[C@@H]3CCC4=CC(=O)C=C[C@]4(C)[C@@]3(Cl)[C@@H](O)C[C@]2(C)[C@@]1(OC(=O)c1ccco1)C(=O)CCl` [MOMETASONE FUROATE], the IC50 [21] is reported as > 10 µM (inactive) and the IC50 [22] is reported as > 10 µM (inactive).
